Values after ≈ are worked out from the molar mass of the structure shown. Like-named read-outs stand apart in the source and are kept apart here.
Legend:
HPV18 [1] = test: microbe, parasite or virus in culture; conditions: human papillomavirus 18, C-33-A
HPV16 [2] = test: microbe, parasite or virus in culture; conditions: Human papillomavirus 16, C-33-A
HPV6 = HPV6 transient transfection reporter plasmid replication assay; conditions: for EC50 / EC90: Alphapapillomavirus 10, C-33-A
HPV11 [3] = test: microbe, parasite or virus in culture; conditions: human papillomavirus 11, C-33-A
[4] = system: Human Coronavirus (β) OC43; test: Antiviral activity against Human Coronavirus (β); type: cell-based
[5] = system: Novel coronavirus (SARS-COV-2); test: Antiviral activity against Novel Coronavirus; type: cell-based
[6] = system: Rift Valley Fever Virus (RVFV); test: microbe, parasite or virus in culture; type: cell-based
[7] = system: Chikungunya virus (CHIKV); test: Antiviral activity against Chikungunya Virus; type: cell-based
in vitro [8] = conditions: human
HPV18 [9] = conditions: Human Papillomavirus 18 KC470230.1, C-33 A
Influenza A H1N1 = test: Antiviral activity against Influenza A H1N1; type: cell-based
Herpes Simplex Virus 2 = test: Antiviral activity against Herpes Simplex Virus 2; type: cell-based
Varicella-zoster Virus = test: Antiviral activity against Varicella-zoster Virus; type: cell-based
Dengue Virus 2 = test: Antiviral activity against Dengue Virus 2; type: cell-based
[10] = system: Human Coronavirus (α) 229E; test: Antiviral activity against Human Coronavirus (α); type: cell-based
in vitro [11] = conditions: dog
[12] = system: human papillomavirus (HPV); test: Antiviral activity against human papillomavirus (HPV), overall conclusion; type: cell-based
Description: When the SI50 value>10, the compound was determined to be active against the virus.

other viruses = test: Antiviral activity against other (non-HPV) viruses, overall conclusion; type: cell-based
HPV11 [13] = conditions: Human Papillomavirus 11 HE611260.1, C-33 A
in vitro [14] = conditions: African green monkey
Herpes Simplex Virus 1 = test: Antiviral activity against Herpes Simplex Virus 1; type: cell-based
in vitro [15] = conditions: human; remark: listed apart in the source
Huh7 = conditions: human
HPV16 [16] = conditions: Human Papillomavirus 16 KP212151.1, C-33 A
Tacaribe Virus (TCRV) = test: microbe, parasite or virus in culture; type: cell-based
[17] = system: Middle East Respiratory Syndrome Coronavirus (MERS-COV); test: microbe, parasite or virus in culture; type: cell-based; conditions: Vero 76
in vitro [18] = conditions: human; remark: listed apart in the source
[19] = HPV16 strain KP212151.1, C-33 A, concentration range 0.001-250 μM
[20] = Human Papillomavirus 16 KP212151.1, C-33 A, 0.001-250 μM
[21] = Human Papillomavirus 16 KP212151.1, C-33 A, 0.048-150 μM
[22] = Human Papillomavirus 6 FR751330.1, C-33 A

`Nc1nc2c(ncn2CCOCP(=O)(O)O)c(=O)[nH]1` [9-[2-(phosphonomethoxy)ethyl]guanine] showed an EC50 (HPV18 [1]) of 630 nM, an EC90 (HPV18 [1]) greater than 150000 nM and an EC50 (HPV16 [2]; [19]) of 280 nM. It also gave an EC90 (HPV16 [2]; [19]) of 2300 nM, an EC50 (HPV6) of 560 nM and an EC90 (HPV6) of 6350 nM. The EC50 (HPV11 [3]) was 1030 nM and the EC90 (HPV11 [3]) was 4470 nM.
With `O=[N+]([O-])c1ccc(O)c2ncccc12` the EC50 (HPV18 [1]) was 1010 nM, the EC90 (HPV18 [1]) was 3990 nM and the “SI50 (CC50/EC50)” value [4] was 0. The EC50 ([4]; unidentified human coronavirus, OC43) was greater than 0.37 µg/mL, the “SI50 (CC50/EC50)” value [5] was 3.1 and the EC50 ([5]; Severe acute respiratory syndrome coronavirus 2, Vero 76) was 0.32 µg/mL (≈ 1.68 µM). For the same molecule, the EC50 (HPV16 [2]; [20]) was 260 nM, the EC90 (HPV16 [2]; [20]) was 540 nM and the EC50 (HPV16 [2]; [21]) was 2820 nM. For the same molecule, the EC90 (HPV16 [2]; [21]) was 5110 nM, the “SI50 (CC50/EC50)” value ([6]; Rift Valley Fever Virus MP-12, Vero 76) was 1 and the EC50 ([6]; Rift Valley fever virus, Vero 76) was greater than 0.16 µg/mL. For the same molecule, the “SI50 (CC50/EC50)” value [7] was 0, the EC50 ([7]; Chikungunya virus, Vero 76) was greater than 0.86 µg/mL and the CC50 at 48 h (in vitro [8]) was 55500 nM. The “SI50 (CC50/EC50)” value (HPV18 [9]) was 64, the SI90 (HPV18 [9]) was 16 and the “SI50 (CC50/EC50)” value (Influenza A H1N1) was 3.8. The EC50 (Influenza A H1N1; Influenza A virus, H1N1, MDCK) was 0.32 µg/mL (≈ 1.68 µM), the “SI50 (CC50/EC50)” value (Herpes Simplex Virus 2) was less than 4 and the EC50 (Herpes Simplex Virus 2; Human alphaherpesvirus 2) was greater than 1200 nM. For the same molecule, the “SI50 (CC50/EC50)” value (Varicella-zoster Virus) was less than 3, the EC50 (Varicella-zoster Virus; Human alphaherpesvirus 3) was greater than 240 nM and the “SI50 (CC50/EC50)” value (Dengue Virus 2) was 1.3. For the same molecule, the EC50 (Dengue Virus 2; Dengue virus, Huh-7) was 0.32 µg/mL (≈ 1.68 µM), the “SI50 (CC50/EC50)” value [10] was 1.3 and the EC50 ([10]; unidentified human coronavirus, Huh-7) was 0.32 µg/mL (≈ 1.68 µM). The CC50 (in vitro [11]) was 1.2 µg/mL (≈ 6.31 µM), the “antiviral activity compared with the positive control drug” value ([12]; HPV, Tables 1 and 2) was “better than that of the positive control drug” and the “inhibitory activity against HPV” value ([12]; active when SI50 value>10) was “specific inhibitory activity against HPV”. For the same molecule, the “inhibitory activity against other viruses” value (other viruses) was “not observed against other viruses”, the “SI50 (CC50/EC50)” value (HPV11 [13]) was 53 and the SI90 (HPV11 [13]) was 19. The CC50 (in vitro [14]) was less than 0.1 µg/mL, the “SI50 (CC50/EC50)” value (Herpes Simplex Virus 1) was less than 3.0 and the EC50 (Herpes Simplex Virus 1; Human alphaherpesvirus 1) was greater than 1200 nM. The CC50 (in vitro [15]) was 0.37 µg/mL (≈ 1.95 µM), the CC50 (Huh7) was 0.4 µg/mL (≈ 2.1 µM) and the “SI50 (CC50/EC50)” value (HPV16 [16]; 0.001-250 μM) was 297. The SI90 (HPV16 [16]; 0.001-250 μM) was 143, the “SI50 (CC50/EC50)” value (HPV16 [16]; 0.048-150 μM) was 23 and the SI90 (HPV16 [16]; 0.048-150 μM) was 13. The EC50 (HPV6) was 860 nM, the EC90 (HPV6) was 5410 nM and the “SI50 (CC50/EC50)” value (HPV6; [22]) was 55. For the same molecule, the SI90 (HPV6; [22]) was 9, the EC50 (HPV11 [3]) was 1040 nM and the EC90 (HPV11 [3]) was 2990 nM. The EC50 (Tacaribe Virus (TCRV); Mammarenavirus tacaribeense, Vero) was less than 0.1 µg/mL, the “SI50 (CC50/EC50)” value (Tacaribe Virus (TCRV); Tacaribe Virus TRVL 11573, Vero) was 1 and the “SI50 (CC50/EC50)” value ([17]; MERS Coronavirus EMC) was 0. It also gave an EC50 ([17]; Middle East respiratory syndrome-related coronavirus) greater than 0.32 µg/mL and a CC50 (in vitro [18]) of 0.42 µg/mL (≈ 2.21 µM).
